Columns and labels:
[1] = system: elastase-treated mice (emphysema); experiment: Elastase-induced emphysema in mice; type: in vivo; details: HDL 75 mg/kg; AAT alone 3.75 mg/kg; i.v., 4 injections
Protocol: First, large amount of HDL purified from human plasma by ultracentrifugation was pooled in order to work with the same batch of HDL and HDL enriched with AAT. AAT was incubated for 16 hours at 37° C. under gentle agitation. […] A Western-Blot for AAT and apolipoprotein A-I was performed on HDL and HDL loaded with AAT. […] Anti-elastase assay was performed in parallel, corroborating the results obtained by WB. These experiments quantify AAT in enriched HDL. The same amount of free AAT was then injected in a control group. The aim of this experiment is to test whether HDL-AAT prevent more the development of emphysema relative to AAT injected alone. HDL containing naturally AAT are also injected in another group.
45 mice are subjected to intra-tracheal elastase instillation.
The mice were sacrificed 28 day after initial instillation of elastase, and the emphysema was semi-quantified by scoring alveoli destruction (double blind determination by two independent pathologists).

transient filament MCAO = experiment: Transient filament MCAO (fMCAO) with tPA (Example 9)
Text: STAIR recommendations have been followed to avoid bias due to experimental design 10. Animal care and experimental protocols were approved by the Animal Ethics Committee of the INSERM-University Paris 7. Male Sprague-Dawley rats (Janvier, France) weighing 300 to 350 g, were anesthetized by isoflurane mixed with air (4% for induction; 1% during surgery), under spontaneous respiration. Two different models of focal cerebral ischemia were used as requested by STAIR recommendations: embolic (eMCAO) and transient filament MCAO (fMCAO). Focal cerebral ischemia was induced by intraluminal occlusion of the middle cerebral artery for 4 hours. eMCAO was induced by injection of a preformed clot at the origin of MCA as already described. Continuous laser Doppler flowmetry (VMS, Moor Instrument) was used to monitor regional cerebral perfusion to ensure the adequacy of filament MCA occlusion (perfusion decreased to <20% of preischemic baselines). […] Saline (2.0 mL/kg body weight) with or without recombinant tPA (10 mg/kg body weight; Actilyse, Boehringer Ingelheim) was administered (10% bolus, 90% continuous infusion) to rats via the right femoral vein. The relatively high dose of tPA was necessary to achieve a fibrinolytic effect in rats similar to that of thrombolytic therapy in humans. Continuous tPA or saline infusion (for 30 min. Harvard Apparatus Infusion Pump) started 4 hours after stroke onset, immediately before recanalization (after withdrawal of the filament in fMCAO), or 4 hours after clot placement in the MCA. After saline or tPA administration, rats were returned to their cages. Body temperature was maintained at 37° C.±0.5 with a heating pad for the duration of surgery. Glycemia, arterial blood pressure and blood gases were also monitored during surgery. […] Computer-based randomization was used to allocate drug regimens to each group. Experiments were blinded and the operator was unaware of group allocation during surgery and outcome assessment.
Seven coronal sections of the brain (2 mm in thickness) were stained with 2% 2,3,5-triphenyltetrazolium chloride (TTC, Sigma-Aldrich) for 20 minutes at room temperature. […] Volume calculation with oedema correction was performed blindly using the following formula: 100× (contralateral hemisphere volume−non infarct ipsilateral hemisphere volume)/contralateral hemisphere volume. […] Ten-micrometer sections were cut from the caudal site of all 7 slices and analyzed before TTC staining. Areas of hemorrhagic transformation from these 7 brain sections were measured using Photoshop software by semi-automatic selection of extravasated erythrocytes.

embolic MCAO = experiment: Embolic MCAO (eMCAO) with tPA (Example 9)
Text: STAIR recommendations have been followed to avoid bias due to experimental design 10. Animal care and experimental protocols were approved by the Animal Ethics Committee of the INSERM-University Paris 7. Male Sprague-Dawley rats (Janvier, France) weighing 300 to 350 g, were anesthetized by isoflurane mixed with air (4% for induction; 1% during surgery), under spontaneous respiration. Two different models of focal cerebral ischemia were used as requested by STAIR recommendations: embolic (eMCAO) and transient filament MCAO (fMCAO). Focal cerebral ischemia was induced by intraluminal occlusion of the middle cerebral artery for 4 hours. eMCAO was induced by injection of a preformed clot at the origin of MCA as already described. Continuous laser Doppler flowmetry (VMS, Moor Instrument) was used to monitor regional cerebral perfusion to ensure the adequacy of filament MCA occlusion (perfusion decreased to <20% of preischemic baselines). […] Saline (2.0 mL/kg body weight) with or without recombinant tPA (10 mg/kg body weight; Actilyse, Boehringer Ingelheim) was administered (10% bolus, 90% continuous infusion) to rats via the right femoral vein. The relatively high dose of tPA was necessary to achieve a fibrinolytic effect in rats similar to that of thrombolytic therapy in humans. Continuous tPA or saline infusion (for 30 min. Harvard Apparatus Infusion Pump) started 4 hours after stroke onset, immediately before recanalization (after withdrawal of the filament in fMCAO), or 4 hours after clot placement in the MCA. […] Glycemia, arterial blood pressure and blood gases were also monitored during surgery. […]
Seven coronal sections of the brain (2 mm in thickness) were stained with 2% 2,3,5-triphenyltetrazolium chloride (TTC, Sigma-Aldrich) for 20 minutes at room temperature. […] Ten-micrometer sections were cut from the caudal site of all 7 slices and analyzed before TTC staining. Areas of hemorrhagic transformation from these 7 brain sections were measured using Photoshop software by semi-automatic selection of extravasated erythrocytes.

blood-brain barrier = experiment: IgG extravasation in filament MCAO model; type: in vivo, Sprague-Dawley rats; details: tPA vs saline; combination vs tPA alone
Protocol: Blood-brain barrier permeability was evaluated in vivo by using fluorescence detection of IgG extravasation in filament MCAO model. At 24 hours after stroke, rats were deeply anesthetized with pentobarbital and transcardially perfused with saline. Brains were removed, cut in 2 mm coronal sections, embedded with OCT and frozen. Ten μm sections (at +0.70 mm posterior to bregma) were prepared. Sections were prepared and incubated overnight at 4° C. with donkey anti-rat IgG antibodies (5 μg/mL, Molecular Probes) labelled with Alexa Fluor® 488. IgG extravasation was quantified semi-automatically with morphometry software (Histolab 6.1.5, Microvision Instruments).

[2] = system: collagen IV (basal lamina of cerebral microvessels); experiment: Collagen IV immunoreactivity in cerebral microvessels (filament MCAO); type: in vivo, Sprague-Dawley rats; details: 24 hours after stroke; combination relative to tPA alone
Protocol: Frozen sections were fixed with 3.7% paraformaldehyde and blocked with 10% goat serum. Sections were incubated overnight at 4° C. with a rabbit polyclonal to collagen IV (2 μg/mL, Abcam) for detection of basal lamina of intracerebral vessels. FITC-conjugated Bandeiraea Simplicifolia Lectin I (isolectin B4) (5 μg/mL, Vector Laboratories) was used to visualize endothelial cells. Non-immune rabbit IgG were included in each set of experiments as primary antibody to test the specificity of the signal. We used Alexa-Fluor® 555 as secondary antibodies. Immunostaining was analysed with a fluorescent microscope interfaced with a digital capture system. All immunohistological evaluations were carried out by an observer who was blinded to the treatment. For semi-quantification of the collagen type IV expression, three fields of each territory were acquired using a×10 objective. A threshold of fluorescence intensity, which encompasses positive vessels on the contralateral image, was applied to each corresponding ipsilateral image. IHC analysis was performed in filament MCAO model.

hCMEC/D3 cells = experiment: In vitro blood-brain barrier model with tPA under OGD; type: cell-based, human
Protocol: The human brain endothelial cell line hCMEC/D3 kindly provided by Dr. P. O. Couraud. Cells were cultured in complete EBM-2 medium (Endothelial Basal Medium+2.5% of fetal calf serum and supplements containing hydrocortisone and growth factors).
OGD (Oxygen Glucose Deprivation) conditions were obtained by using DMEM medium without glucose (Gibco) versus 1 g/L glucose DMEM for non-OGD conditions. Oxygen deprivation was obtained by using a hypoxia chamber (Billups-Rothenberg) where atmospheric air was replaced by a mix of gas (0% O2, 5% CO2, 95% N2, Air Product). DMEM used for OGD conditions was equilibrated with the same mix.
For permeability experiments, hCMEC/D3 cells were seeded at 5.105 cells/cm^2 on collagen inserts (PCF filters, 0.4 μm pore size, Millicell 24-well plates, Millipore) in complete EBM-2. Cells were grown for 14 days post-confluence before use. Permeability was assessed using fluorescein isothiocyanate (FITC) labelled dextran (70 kDa molecular weight). […] 200 μL from the collecting wells were transferred into a 96-well plate, and the dextran fluorescence was determined on the microplate reader at 485 nm (excitation) and 538 nm (emission). Fluorescence was converted to concentration using a standard curve. The volume cleared was calculated from the ratio of dextran concentration in each sample to the applied concentration (0.385 mg/mL). The endothelial permeability coefficient Pe (cm/min) was calculated by determining the volumes of clearance of dextran with or without cells. The cleared volume was calculated from the […], and plotted against time. PS (permeability surface) was calculated from 1/PS=1/PSe−1/PSf, where PSe is the slope of clearance in the presence of cells and PSf is the slope for a blank insert (cell free)16. […]
For detection of fibronectin in HCMEC/D3 cell culture supernatant, 5 μL of conditioned medium were analyzed by SDS-8% PAGE. […]

[3] = acute phase of stroke; cited from earlier work

Substance	protective effect on development of emphysema [1]	edema surrounding ischemic cerebral vessels (transient filament MCAO; compared to HDL+tPA group)	infarct volume (transient filament MCAO; fMCAO, 24 hours, tPA and HDL alone vs saline, combination vs tPA alone)	mortality rate (transient filament MCAO; fMCAO, tPA 10 mg/kg 4 hours after stroke onset, 24 hours) [%]	mortality (transient filament MCAO; fMCAO, tPA and HDL alone vs saline, combination vs tPA alone)	infarct volume (embolic MCAO; 24 hours, tPA and HDL alone vs saline, combination vs tPA alone)	mortality rate (embolic MCAO; tPA 10 mg/kg 4 hours after stroke onset, 24 hours) [%]	mortality (embolic MCAO; tPA and HDL alone vs saline, combination vs tPA alone)	IgG extravasation in the ischemic hemisphere (blood-brain barrier)	number of collagen IV immunoreactive vessels in the infarcted area [2]	VE-cadherin intercellular junction organization (hCMEC/D3 cells; 200 nM tPA and/or 400 μg/mL HDL)	release of soluble fibronectin/fragments in supernatants (hCMEC/D3 cells; 200 nM tPA and/or 400 μg/mL HDL, Western Blot)	BBB permeability in vitro (hCMEC/D3 cells; 200 nM tPA, 4 hours of stimulation)	increase in symptomatic cerebral haemorrhage [3] [fold]
AAT: 52 kD glycoprotein, natural inhibitor of neutrophil elastase	mild protective effect													
tPA: recombinant tissue plasminogen activator, thrombolytic drug approved for stroke		Large edema	increased infarct volume	86.05	increased	increased infarct volume	56.25	increased	significantly increased IgG extravasation	decreased	induced a disorganization of intercellular junctions	induced an important release of fibronectin/fragments	neither tPA nor OGD were sufficient to induce increased BBB permeability	10
